Measured values from patent US7384788B2, “Regulator/promoter for tunable gene expression and metabolite sensing” (priority 2003, dated 2008).
Where two headings read alike, the source gives them in different places.

What was measured:
[1] = test system: yhcRQP-luxCDABE gene fusion; experiment: LuxArray bioluminescent response, strain DPD2411 (tolC- host); assay type: cell-based, E. coli; details: for Replica 1 normalized RLU / Replica 2 normalized RLU: LB medium; for bioluminescent response of the yhcRQP-luxCDABE gene fusion (in words): time points other than the zero time point; for upregulation of gene fusion lux-a.pk035.c7 in LuxArray profile: pHCA 10 mM and 5 mM, CA 8 mM and 4 mM
[2] = test system: yhcRQP-luxCDABE gene fusion; experiment: Bioluminescence activation test in strain DPD2411, LB medium pH 7.0; assay type: cell-based, E. coli; details: Experiment code A; for Concentration of maximum response: strain DPD2411, LB pH 7.0; for treated RLU: strain DPD2411, at concentration of maximum response; for Ratio: strain DPD2411, treated RLU/control RLU
From the text: (§1) A derivative of E. coli strain MG1655 (obtained from Prof. Douglas Berg, Washington University School of Medicine, St. Louis, […].) with the yhcS::TN<Kan> mutation was made by P1clr100Cm mediated transduction using phage grown on strain DPD2410 as a donor and selection for kanamycin resistance. The presence of the yhcS::TN<Kan> mutation in one of the resultant transductants, named DPD2433, was confirmed by PCR amplification. Plasmid pDEW655 was moved to E. coli strains MG1655 and DPD2433 by transformation, selecting for Ampicillin resistance to generate strains DPD2436 and DPD2437, respectively. The bioluminescent response of these two strains to pHBA was tested. Aliquots (50 μl) of actively growing cultures at 37° C. in LB medium that had been previously diluted, and from overnight cultures in LB medium with 150 μg/ml Ampicillin were added to 50 μl of LB medium at pH 7.0 containing pHBA as the sodium salt form. Several concentrations of pHBA were tested.
Further characterization of the signals that trigger activation of YhcS, was done using the yhcRQP-luxCDABE gene fusion containing E. coli strains DPD2411 or DPD2436. […] Several weak, aromatic acid molecules in addition to those shown in the Examples above activated expression.

[3] = test system: yhcRQP-luxCDABE gene fusion; experiment: Bioluminescence response in yhcS+ strain DPD2436 (MG1655 host); assay type: cell-based, E. coli; details: for Concentration of maximum response: strain DPD2436, LB pH 7.0; for treated RLU: strain DPD2436, at concentration of maximum response; for Ratio: strain DPD2436, treated RLU/control RLU
From the text: as §1, with “The presence of the yhcS::TN<Kan> mutation in one of the resultant transductants, named DPD2433, was confirmed by PCR amplification.” left out
Further characterization of the signals that trigger activation of YhcS, was done using the yhcRQP-luxCDABE gene fusion containing E. coli strains DPD2411 or DPD2436.

[4] = test system: yciG-luxCDABE gene fusion; details: for activation of acid responsive yciG-luxCDABE gene fusion (in words): concentrations tested, 100 minutes; for RLU at 100 minutes: yciG-luxCDABE, pH 7.0
From the text: (§2) Three E. coli strains, each in the same host strain but carrying different, plasmid-borne, promoter-luxCDABE fusions were used. Strain DPD2411 contains a yhcRQP-luxCDABE gene fusion as described in Example 2. Strain DPD2084 contains a yciG-luxCDABE gene fusion that has been previously described. Strain DPD3282 contains a lysU-luxCDABE gene fusion that was part of the LuxA collection of gene fusions, described in Example 2. The plasmid in this strain, pDEW558, contains an E. coli chromosomal segment between nucleotides 4350990 and 4353107 according to the E. coli genomic sequence; the orientation of the chromosomal segment is such that the lysU promoter region controls expression of luxCDABE. Each of these three strains was grown overnight in Vogel-Bonner minimal medium with 0.4% glucose as the carbon source and supplemented with L-proline, L-lysine, uracil and 25 μg/ml Ampicillin. The overnight cultures were diluted into the same medium except lacking Ampicillin and incubated at 37° C. until in mid-exponential growth. Aliquots (50 μl) of these actively growing cultures were added to 50 μl of the same medium at pH 7.0 without Ampicillin but containing various concentrations of sodium acetate or sodium salicylate in the wells of a 96 well, white microplate (Microlite, Dynex Technologies). Immediately after adding the cell culture, the bioluminescence was quantitated in a microplate luminometer in the kinetic mode.

[5] = test system: yhcRQP-luxCDABE gene fusion; details: for activation of expression of yhcRQP-luxCDABE (in words): concentrations tested, 100 minutes; for RLU at 100 minutes: yhcRQP-luxCDABE, pH 7.0
From the text: as §2

[6] = test system: lysU-luxCDABE gene fusion; details: for activation of acid responsive lysU-luxCDABE gene fusion (in words): concentrations tested, 100 minutes; for RLU at 100 minutes: lysU-luxCDABE, pH 7.0
From the text: as §2

BenM = BenM (Acinetobacter baylyi, UniProt O68014); details: benzoic acid alone; cited from earlier work
Sequence of BenM (O68014 whole entry): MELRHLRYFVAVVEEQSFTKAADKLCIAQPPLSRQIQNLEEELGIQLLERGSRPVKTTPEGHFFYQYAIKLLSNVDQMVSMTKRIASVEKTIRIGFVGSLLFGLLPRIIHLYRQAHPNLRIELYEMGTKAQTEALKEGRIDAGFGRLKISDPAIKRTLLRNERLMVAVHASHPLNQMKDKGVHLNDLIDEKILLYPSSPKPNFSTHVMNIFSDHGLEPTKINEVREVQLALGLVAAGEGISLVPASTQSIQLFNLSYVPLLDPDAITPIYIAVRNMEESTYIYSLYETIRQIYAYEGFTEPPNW

## CCO [ethanol]
[1]; 3% ethanol, 0 min
  Replica 1 normalized RLU: 0.024 RLU
  Replica 2 normalized RLU: 0.038 RLU
[1]; 3% ethanol, 45 min
  Replica 1 normalized RLU: 0.024 RLU
  Replica 2 normalized RLU: 0.029 RLU
[1]; 3% ethanol, 90 min
  Replica 1 normalized RLU: 0.022 RLU
  Replica 2 normalized RLU: 0.026 RLU
[1]; 3% ethanol, 135 min
  Replica 1 normalized RLU: 0.012 RLU
  Replica 2 normalized RLU: 0.014 RLU
[1]; 5% ethanol, 0 min
  Replica 1 normalized RLU: 0.022 RLU
  Replica 2 normalized RLU: 0.037 RLU
[1]; 5% ethanol, 45 min
  Replica 1 normalized RLU: 0.014 RLU
  Replica 2 normalized RLU: 0.017 RLU
[1]; 5% ethanol, 90 min
  Replica 1 normalized RLU: 0.022 RLU
  Replica 2 normalized RLU: 0.017 RLU
[1]; 5% ethanol, 135 min
  Replica 1 normalized RLU: 0.015 RLU
  Replica 2 normalized RLU: 0.014 RLU
[1]
  bioluminescent response of the yhcRQP-luxCDABE gene fusion (in words): does not induce increased bioluminescence

## O=C(O)c1cccc2ccccc12 [1-napthoate]
[2]
  Concentration of maximum response: 2.5 mM
  treated RLU: 29.662 RLU
  Ratio: 132

## O=C(O)C=Cc1ccccc1 [CA, cinnamic acid]
[1]; 4 mM CA, 0 min
  Replica 1 normalized RLU: 0.026 RLU
  Replica 2 normalized RLU: 0.062 RLU
[1]; 4 mM CA, 45 min
  Replica 1 normalized RLU: 4.092 RLU
  Replica 2 normalized RLU: 2.928 RLU
[1]; 4 mM CA, 90 min
  Replica 1 normalized RLU: 5.845 RLU
  Replica 2 normalized RLU: 4.951 RLU
[1]; 4 mM CA, 135 min
  Replica 1 normalized RLU: 5.394 RLU
  Replica 2 normalized RLU: 3.678 RLU
[1]; 8 mM CA, 0 min
  Replica 1 normalized RLU: 0.022 RLU
  Replica 2 normalized RLU: 0.054 RLU
[1]; 8 mM CA, 45 min
  Replica 1 normalized RLU: 4.937 RLU
  Replica 2 normalized RLU: 3.405 RLU
[1]; 8 mM CA, 90 min
  Replica 1 normalized RLU: 8.379 RLU
  Replica 2 normalized RLU: 6.193 RLU
[1]; 8 mM CA, 135 min
  Replica 1 normalized RLU: 6.981 RLU
  Replica 2 normalized RLU: 5.746 RLU
[1]
  upregulation of gene fusion lux-a.pk035.c7 in LuxArray profile: several hundred-fold upregulated
  bioluminescent response of the yhcRQP-luxCDABE gene fusion (in words): dramatic upregulation

## O=C([O-])c1ccccc1O.[Na+] [Sodium salicylate]
[3]; Experiment code D
  Concentration of maximum response: 6.2 mM
  treated RLU: 14.703 RLU
  Ratio: 77
[4]
  activation of acid responsive yciG-luxCDABE gene fusion (in words): did not increase expression
[4]; 0.6 mM salicylate
  RLU at 100 minutes: 0.19 RLU
[4]; 5.0 mM salicylate
  RLU at 100 minutes: 0.13 RLU
[5]
  activation of expression of yhcRQP-luxCDABE (in words): upregulated expression
[5]; 0.6 mM salicylate
  RLU at 100 minutes: 7.9 RLU
[5]; 5.0 mM salicylate
  RLU at 100 minutes: 26.0 RLU
[6]
  activation of acid responsive lysU-luxCDABE gene fusion (in words): did not increase expression
[6]; 0.6 mM salicylate
  RLU at 100 minutes: 1.3 RLU
[6]; 5.0 mM salicylate
  RLU at 100 minutes: 0.89 RLU

## CC(=O)[O-].[Na+] [acetate, sodium acetate]
[4]
  activation of acid responsive yciG-luxCDABE gene fusion (in words): did activate
[4]; 80 mM acetate
  RLU at 100 minutes: 0.35 RLU
[4]; 160 mM acetate
  RLU at 100 minutes: 0.80 RLU
[5]
  activation of expression of yhcRQP-luxCDABE (in words): did not activate expression
[5]; 80 mM acetate
  RLU at 100 minutes: 0.14 RLU
[5]; 160 mM acetate
  RLU at 100 minutes: 0.08 RLU
[6]
  activation of acid responsive lysU-luxCDABE gene fusion (in words): did activate
[6]; 80 mM acetate
  RLU at 100 minutes: 1.4 RLU
[6]; 160 mM acetate
  RLU at 100 minutes: 6.0 RLU

## O=C(O)C=Cc1ccc(O)cc1 [pHCA, para-hydroxycinnamic acid]
[1]; 5 mM pHCA, 0 min
  Replica 1 normalized RLU: 0.056 RLU
  Replica 2 normalized RLU: 0.043 RLU
[1]; 5 mM pHCA, 45 min
  Replica 1 normalized RLU: 10.695 RLU
  Replica 2 normalized RLU: 9.325 RLU
[1]; 5 mM pHCA, 90 min
  Replica 1 normalized RLU: 14.276 RLU
  Replica 2 normalized RLU: 14.754 RLU
[1]; 5 mM pHCA, 135 min
  Replica 1 normalized RLU: 13.533 RLU
  Replica 2 normalized RLU: 10.587 RLU
[1]; 10 mM pHCA, 0 min
  Replica 1 normalized RLU: 0.056 RLU
  Replica 2 normalized RLU: 0.034 RLU
[1]; 10 mM pHCA, 45 min
  Replica 1 normalized RLU: 9.094 RLU
  Replica 2 normalized RLU: 7.31 RLU
[1]; 10 mM pHCA, 90 min
  Replica 1 normalized RLU: 14.314 RLU
  Replica 2 normalized RLU: 11.164 RLU
[1]; 10 mM pHCA, 135 min
  Replica 1 normalized RLU: 15.283 RLU
  Replica 2 normalized RLU: 12.867 RLU
[1]
  upregulation of gene fusion lux-a.pk035.c7 in LuxArray profile: several hundred-fold upregulated
  bioluminescent response of the yhcRQP-luxCDABE gene fusion (in words): dramatic upregulation

## O=C([O-])c1ccc(O)cc1.[Na+] [Sodium pHBA]
[2]
  Concentration of maximum response: 25 mM
  treated RLU: 69.678 RLU
  Ratio: 302
[3]; Experiment code C
  Concentration of maximum response: 50 mM
  treated RLU: 91.658 RLU
  Ratio: 145
[3]; Experiment code D
  Concentration of maximum response: 50 mM
  treated RLU: 48.643 RLU
  Ratio: 248

## O=C(O)c1ccccc1 [Benzoic acid, benzoic acid]
BenM
  induction of BenM activity: minimal, if any, induction

## O=C([O-])c1ccccc1.[Na+] [Sodium benzoate]
[3]; Experiment code B
  Concentration of maximum response: 6.2 mM
  treated RLU: 3.759 RLU
  Ratio: 13
[3]; Experiment code C
  Concentration of maximum response: 12.5 mM
  treated RLU: 8.093 RLU
  Ratio: 12
